Measurements taken from patent publication US20260115250A1, “METHODS OF TREATING AGE-RELATED MACULAR DEGENERATION” (Character Biosciences, Inc., priority 2022, published 2026).
Each block holds one compound with its values, some of them ahead of it. Peptide text beside a SMILES is read from it.

How the values were obtained:
[1] = target: T1, LDLR (Homo sapiens, UniProt P01130); experiment: KD, Peptide (μM)
Excerpt: Table printed on a drawing sheet, FIG. 24B
Title: Buffer: HBS + 0.005% P20
Head of the field: KD, Peptide (μM)
The patent's description of the figure: FIGS. 24A-24B are tables showing the binding kinetics results of LDLR binding assays (SPR), lipid-dependent binding with a low-surfactant preparation as described herein for select peptides shown in FIG. 1A-1I.
First copying reader's note: Continued from FIG. 24A; KD values are LDLR binding by SPR for the peptide alone and for its DMPC lipid complex, with the error given in the same cell after ±.
Where the first naming reader finds the target: description_of_the_figure: FIGS. 24A-24B are tables showing the binding kinetics results of LDLR binding assays (SPR)
Target sequence in this assay (P01130 22-860 limits assumed): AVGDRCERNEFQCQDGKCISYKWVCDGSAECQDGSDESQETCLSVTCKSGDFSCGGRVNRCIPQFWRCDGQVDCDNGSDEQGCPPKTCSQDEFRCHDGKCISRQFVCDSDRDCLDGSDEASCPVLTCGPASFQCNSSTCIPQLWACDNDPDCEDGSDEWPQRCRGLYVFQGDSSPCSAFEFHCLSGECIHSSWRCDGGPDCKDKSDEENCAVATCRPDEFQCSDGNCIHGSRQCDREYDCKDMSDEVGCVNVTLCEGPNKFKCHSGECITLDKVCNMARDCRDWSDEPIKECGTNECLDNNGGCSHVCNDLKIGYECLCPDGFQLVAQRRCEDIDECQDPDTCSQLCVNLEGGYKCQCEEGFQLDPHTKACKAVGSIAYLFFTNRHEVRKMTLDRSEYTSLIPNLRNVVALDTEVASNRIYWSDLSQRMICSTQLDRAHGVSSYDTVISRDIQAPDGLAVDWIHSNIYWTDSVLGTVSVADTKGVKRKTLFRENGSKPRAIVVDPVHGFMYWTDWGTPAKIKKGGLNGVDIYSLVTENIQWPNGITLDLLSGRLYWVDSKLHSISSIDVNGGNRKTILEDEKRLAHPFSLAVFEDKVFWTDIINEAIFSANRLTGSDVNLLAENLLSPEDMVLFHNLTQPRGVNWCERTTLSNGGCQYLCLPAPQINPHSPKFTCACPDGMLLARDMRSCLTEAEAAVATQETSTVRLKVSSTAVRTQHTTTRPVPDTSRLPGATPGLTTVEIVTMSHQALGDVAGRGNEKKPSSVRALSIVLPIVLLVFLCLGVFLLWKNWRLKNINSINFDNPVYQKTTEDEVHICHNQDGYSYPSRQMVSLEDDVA

[2] = system: ARPE-19 cells; experiment: ARPE-19 cell viability assay (Cell Titer Glo); type: cell-based, human; conditions: 100 μM peptide, 1.5 hours
Method: ARPE-19 cells were seeded in 96-well plates at 25,000 cells/well and allowed to adhere to the plate surface for at least 24 hours. Peptides were diluted in serum-free DMEM: F12 to a final concentration of 100 μM. Cells were washed, then incubated in 100 μM peptide solution for 1.5 hours at 37° C. Plates were brought to room temperature for 30 minutes, then washed with DPBS. Cells were incubated in a 1:1 mixture of DPBS and Cell Titer Glo 2.0 Reagent for 10 minutes at room temperature, then cell luminescence was read on a plate reader. Viability values were background corrected, and 0% viability is determined by luminescence values of cells treated with 1% Triton-X-100. Data are presented as mean+SD over two separate runs.

[3] = DMPC solubility titration, 1 mM DMPC; type: biochemical; conditions: 3.16-100 μM peptides, 15 minutes
Method: FIGS. 4A-4B illustrate a screening assay based on DMPC solubility, measured by reducing turbidity of DMPC liposome solutions, for a subset of the peptides in FIGS. 1B-1I. FIGS. 4A-4B illustrate DMPC solubility titration curves. Peptide stocks were diluted to 200 μM in H2O (a 2× solution) and serially diluted in H2O over 4 concentrations, then 50 μL of peptide solutions were distributed in triplicate into 96-well plates. A 2 mM solution of 1,2-dimyristoyl-sn-glycero-3-phosphocholine (DMPC) in H2O was prepared, and using a multichannel pipet, 50 μL DMPC solution was rapidly added to the plate. Peptide and lipid solutions were incubated at room temperature for 15 minutes with final concentrations of 3.16-100 μM peptides and 1 mM DMPC. After 15 minutes, absorbance was read on a plate reader at 405 nm. […] Data are presented as mean+SD over two runs. Non-linear regression was used to calculate EC50 values.

[4] = system: HMC3 cells; experiment: HMC3 cholesterol efflux; type: cell-based, human
Method: (§1) FIGS. 27A-27B and FIG. 28 illustrate HMC3 cholesterol efflux. Fully confluent 96-well plates of HMC3 cells were treated for 1 hour in serum-free EMEM containing 10 mM methyl-β-cyclodextrin, 100 μM cholesterol, and 25 μM BODIPY cholesterol. Cells were then washed and incubated overnight in serum free EMEM containing 1 μM LXR agonist GW3965, 2 μg/mL ACAT inhibitor, and 0.2% BSA (LXR Agonist treated), or serum-free EMEM containing 2 μg/mL ACAT inhibitor, and 0.2% BSA (Control). Cells were washed and incubated with 20 μM peptides diluted in serum-free Fluorobrite DMEM for 4 hours at 37° C. Media was transferred to a new 96-well plate and fresh serum-free Fluorobrite DMEM was placed on the cells. Media and cellular fluorescence were read on a Promega GloMax at 475 nm excitation, 500-550 emission. Fluorescence values were background corrected from no treatment conditions and percent efflux was calculated by the following equation: % efflux=(Media Fluorescence values)/(Media+Cell Fluorescence values). Data are presented as mean+SD over two runs per peptide.
as §1, with “FIGS. 30A-30J show” for “FIGS. 27A-27B and FIG. 28 illustrate”, “cholesterol efflux titration curves for the indicated peptides.” for “cholesterol efflux.”, “μM” for “μM LXR agonist”, “or serum free” for “or serum-free”, “with 0-100” for “with 20”, “peptides serially” for “peptides”

[5] = target: T1, LDLR; experiment: lipid-dependent LDLR binding (SPR), single concentration; conditions: 1 μM peptide with or without 25 μM DMPC
Method: Peptides were diluted in 1×HBS-N buffer with 1 mM CaCl2 to a final concentration of 1 μM and incubated with or without 25 μM DMPC for 1 hour at RT to form lipid complexes. Each peptide was tested in duplicate. LDLR was diluted to 10 μg/mL in 10 mM acetate buffer pH 4.5 and was immobilized (˜400RU) on a CM5 chip via amine coupling utilizing 1×HBS-P+ buffer with 1 mM CaCl2. Test peptides (with or without DMPC) were exposed to immobilized LDLR at a flow rate of […] for 120 seconds in HBS-N with 1 mM CaCl2. Between cycles the surface was regenerated with 3, 30 second injections of 10 mM NaOH and 100 mM EDTA. Data are plotted as max RU values, averaged from three separate runs.
Target sequence in this assay (P01130 22-860): as the sequence (P01130 22-860 limits assumed) above

[6] = system: HepG2 cells; experiment: HepG2 GAG dependent cholesterol import (with or without heparin); type: cell-based; conditions: HepG2, 10 μM peptide, with or without 100 μg/mL heparin
Method: HepG2 cells were seeded on 96-well plates at 10,000 cells per well and grown to confluence. A 2× solution of 500 μM DMPC and 50 μM BODIPY-Cholesterol with or without 100 μg/mL heparin was prepared in serum free EMEM. Peptides were diluted to 20 μM in serum-free EMEM (a 2× solution). Peptides were added to lipid solution in equal parts (60 μL each) and incubated for 1 hour at 37° C. HepG2 cells were serum starved in serum-free EMEM for 1 hour at 37° C. Peptide: Lipid complexes (100 μL total volume per well) were transferred to HepG2 cells for 2 hours at 37° C. Cells were washed, fixed, and intracellular fluorescence was read on Promega GloMax at 475 nm excitation, 500-550 emission. Fluorescence values were background corrected from no treatment conditions. Data are presented ±SD for 2 runs.

[7] = peptide binding to non-oxidized and oxidized lipids (SPR); conditions: immobilized peptide; RU normalized to DMPC
Method: FIGS. 25A-25O show peptide binding activity to non-oxidized and oxidized lipids via SPR for indicated peptides. Peptides were reconstituted to 50 μg/mL in 10 mM acetate buffer, pH 4.5 and immobilized to ˜200 RU on a CM5 chip via amine coupling. Non-oxidized lipids (DMPC & POPC) and oxidized lipids (POVPC & KOdiA-PC) were diluted to 100 µM in HBS-EP running buffer and exposed to the chip for binding (n=3) at a flow rate of […] for 120 seconds. The surface was regenerated with 20% EtOH. T-001 served as a positive control and T-031 served as a negative control on each chip. For each peptide, the RU response for all lipids was normalized to the DMPC RU values.

[8] = DMPC solubility assay, 0.5 mM DMPC (turbidity reduction); type: biochemical; conditions: FIGS. 2A-2D and 3A-3C
Procedure, shortened: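 Peptides (100 μM final, or 3.16-100 μM for titrations) incubated with 0.5 mM DMPC in water for 15 minutes at room temperature. Turbidity read as absorbance at 405 nm; EC50 from non-linear regression, mean+SD over two runs.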

Kd [1]: 4.27 ± 0.19 µM
Compound: CC(C)C[C@H](NC(=O)[C@H](Cc1c[nH]cn1)NC(=O)[C@H](CO)NC(=O)[C@H](C)NC(=O)[C@@H](N)CC(C)C)C(=O)N[C@@H](CCCNC(=N)N)C(=O)N[C@@H](CCCCN)C(=O)N[C@@H](CC(C)C)C(=O)N[C@@H](CCCNC(=N)N)C(=O)N[C@@H](CCCCN)C(=O)N[C@@H](CCCNC(=N)N)C(=O)N[C@@H](CC(C)C)C(=O)N[C@@H](CC(C)C)C(=O)N[C@@H](CCCNC(=N)N)C(=O)N[C@@H](CC(=O)O)C(=O)N[C@@H](C)C(=O)N[C@@H](CC(=O)O)C(=O)N[C@@H](CC(=O)O)C(=O)O [T-073]

Kd [1]: 33.2 ± 37.7 µM
Compound: CC(C)C[C@H](NC(=O)[C@H](CCCNC(=N)N)NC(=O)[C@H](CC(=O)O)NC(=O)[C@@H](NC(=O)[C@H](CC(C)C)NC(=O)[C@H](CCCCN)NC(=O)[C@H](CC(=O)O)NC(=O)CNC(=O)[C@H](CC(=O)O)NC(=O)[C@H](CCCNC(=N)N)NC(=O)[C@H](CC(C)C)NC(=O)[C@H](CC(C)C)NC(=O)[C@H](CCCNC(=N)N)NC(=O)[C@H](CCCCN)NC(=O)[C@H](CCCNC(=N)N)NC(=O)[C@H](CC(C)C)NC(=O)[C@H](CCCCN)NC(=O)[C@H](CCCNC(=N)N)NC(=O)[C@H](CC(C)C)NC(=O)[C@@H](N)Cc1c[nH]cn1)C(C)C)C(=O)N[C@@H](C)C(=O)N[C@@H](CCC(=O)O)C(=O)N[C@@H](Cc1ccc(O)cc1)C(=O)N[C@H](C(=O)N[C@@H](C)C(=O)N[C@@H](CCCNC(=N)N)C(=O)N[C@@H](C)C(=O)N[C@@H](CCCCN)C(=O)N[C@@H](CCC(=O)O)C(=O)N[C@@H](C)C(=O)N[C@@H](Cc1ccccc1)C(=O)N[C@@H](CC(=O)O)C(=O)N[C@@H](CCCNC(=N)N)C(=O)O)C(C)C [T-077] (H-HLRKLRKRLLRDGDKLVDRLAEYVARAKEAFDR-OH)
ARPE-19 cell viability [2]: substantial change in viability

EC50 [3]: 16.1 µM
Compound: REFRALFKELADYFRDAW [T-084, therapeutic peptide]
cholesterol efflux titration ([4]; HMC3, 0-100 μM peptide, LXR agonist): concentration-dependent increase in cholesterol efflux
cholesterol efflux in the presence of LXR agonist ([4]; HMC3, 20 μM peptide, 4 hours): greater cholesterol efflux

lipid-dependent LDLR binding (RU with lipid vs peptide alone) [5]: lipid-dependent LDLR binding activity
Compound: T-029: therapeutic peptide (HLRKLRKRLLRDGDKLCDRLAEYCARAKEAFDR)
GAG dependence of cholesterol import [6]: rely on GAG binding for cholesterol import activity
binding to oxidized lipids relative to DMPC [7]: binding to at least one oxidized lipid that was equivalent or improved to binding against DMPC
DMPC solubilizing activity [8]: significant activity
